In patent US20230270714A1, “SALVINORIN COMPOSITIONS” (priority 2021, published 2023):
Values after ≈ are worked out from the molar mass of the structure shown. Values joined by “and” are separate entries in the source; they are usually repeats but may differ in a detail not shown here. Identical values can stand only once.

What was measured:
[1] = Solubility of Salvinorin A in solubilizer oils (HPLC)
[2] = Pharmacokinetics of subcutaneous Salvinorin A in rats, first experiment (in 1-methyl-2-pyrrolidine, polyethylene glycol 400 1:9 v/v); assay type: in vivo, male Sprague-Dawley rats
Protocol: A series of experiments were conducted in order to evaluate the pharmacokinetics of injectable Salvinorin A compositions in rats. In the first experiment Salvinorin A was formulated at two different dose concentrations (5 mg/mL and 20 mg/mL Salvinorin A in 1-methyl-2-pyrrolidine, polyethylene glycol 400 at a 1:9 v/v ratio) and administered via injection (subcutaneous) to two groups of male Sprague-Dawley rats.

[3] = Solubilization of Salvinorin A mixed with solubilizers in water (supersaturated mixtures, HPLC)
[4] = Salvinorin A solubility in polar aprotic solvents; assay type: physicochemical
Protocol: In Table 9 below the solubility of Salvinorin A in polar aprotic solvents was evaluated by increasing the amount of Salvinorin A in the candidate solvents.

[5] = administered orally, even at higher doses; cited from earlier work
[6] = Pharmacokinetics of subcutaneous Salvinorin A in rats, Day 1 and Day 8 (in 1-methyl-2-pyrrolidine, polyethylene glycol 400 1:9 v/v); assay type: in vivo, Sprague-Dawley rats; details: for time to peak plasma concentration (Tmax): summary of two separate studies
Protocol: In another experiment Salvinorin A was formulated at three different dose concentrations (1 mg/mL, 5 mg/mL, and 10 mg/mL Salvinorin A in 1-methyl-2-pyrrolidine, polyethylene glycol 400 at a 1:9 v/v ratio) and administered via injection (subcutaneous) to three groups of Sprague-Dawley rats (each group including female and male rats). The formulation containing 10 mg/mL Salvinorin A was administered as two injections at separate dosage sites (total dose of 100 mg/kg). The same groups of rats were administered a second dose of the injectable composition 7 days after the first dosing.

[7] = Solubility of Salvinorin A API and Salvinorin A loaded buccal films in 10 mM PBS pH 7; assay type: physicochemical
Protocol: After 3 hours samples were filtered through 0.45/0.22 micron filter and tested for content by HPLC analysis.

[8] = Group 1, 25 mg/kg subcutaneous, Mean
[9] = Group 1, 25 mg/kg subcutaneous, individual rats 0, 1, 2, 25 mg/kg
[10] = Group 2, 100 mg/kg subcutaneous, Mean
[11] = Group 2, 100 mg/kg subcutaneous, individual rats 3, 4, 5, 100 mg/kg
[12] = Day 1, Group 10, 5 mg/kg subcutaneous, Mean of M and F
[13] = Day 1, Group 10, 5 mg/kg subcutaneous, Sex F
[14] = Day 1, Group 10, 5 mg/kg subcutaneous, Sex M
[15] = Day 1, Group 11, 25 mg/kg subcutaneous, Mean of M and F
[16] = Day 1, Group 11, 25 mg/kg subcutaneous, Sex F
[17] = Day 1, Group 11, 25 mg/kg subcutaneous, Sex M
[18] = Day 1, Group 12, 100 mg/kg subcutaneous (two injections), Mean of M and F
[19] = Day 1, Group 12, 100 mg/kg subcutaneous (two injections), Sex F
[20] = Day 1, Group 12, 100 mg/kg subcutaneous (two injections), Sex M
[21] = Day 8 (second dose), Group 10, 5 mg/kg subcutaneous, Mean of M and F
[22] = Day 8 (second dose), Group 10, 5 mg/kg subcutaneous, Sex F
[23] = Day 8 (second dose), Group 10, 5 mg/kg subcutaneous, Sex M
[24] = Day 8 (second dose), Group 11, 25 mg/kg subcutaneous, Mean of M and F
[25] = Day 8 (second dose), Group 11, 25 mg/kg subcutaneous, Sex F
[26] = Day 8 (second dose), Group 11, 25 mg/kg subcutaneous, Sex M
[27] = Day 8 (second dose), Group 12, 100 mg/kg subcutaneous (two injections), Mean of M and F
[28] = Day 8 (second dose), Group 12, 100 mg/kg subcutaneous (two injections), Sex F
[29] = Day 8 (second dose), Group 12, 100 mg/kg subcutaneous (two injections), Sex M

SMILES: COC(=O)[C@@H]1C[C@H](OC(C)=O)C(=O)[C@H]2[C@@]1(C)CC[C@H]1C(=O)O[C@H](c3ccoc3)C[C@]21C [Salvinorin A]
- Solubility (mg/ml) HPLC ([1]; Eucaliptol 5 g, Salvinorin A 12.00 mg): 0.108 mg/mL (≈ 250 µM)
- Solubility (mg/ml) HPLC ([1]; L Menthone 5 g, Salvinorin A 10.00 mg): 0.101 mg/mL (≈ 234 µM)
- Solubility (mg/ml) HPLC ([1]; Oleyl Alcohol 5 g, Salvinorin A 11.00 mg): 0.065 mg/mL (≈ 150 µM)
- Solubility (mg/ml) HPLC ([1]; Peppermint oil 5 g, Salvinorin A 9.90 mg): 0.384 mg/mL (≈ 888 µM)
- Solubility (mg/ml) HPLC ([1]; S Limonene 5 g, Salvinorin A 10.00 mg): 0.052 mg/mL (≈ 120 µM)
- Solubility (mg/ml) HPLC ([1]; Soybean oil 5 g, Salvinorin A 11.00 mg): 0.032 mg/mL (≈ 74 µM)
- AUC0-00 [2, 8]: 457.0 ng·h/mL
- AUClast [2, 8]: 427.3 ng·h/mL
- Cmax [2, 8]: 215.3 ng/mL
- Tmax [2, 8]: 0.50 h
- T½ [2, 8]: 1.5 h
- Tmax ([2]; Group 1, 25 mg/kg subcutaneous, individual rats 0, 1, 2): 0.50 h
- AUC0-00 [2, 9]: 389 ng·h/mL and 422 ng·h/mL and 560 ng·h/mL
- AUClast [2, 9]: 362 ng·h/mL and 405 ng·h/mL and 515 ng·h/mL
- Cmax [2, 9]: 209 ng/mL and 213 ng/mL and 224 ng/mL
- T½ [2, 9]: 1.00 h and 1.58 h and 1.96 h
- AUC0-00 [2, 10]: 419.3 ng·h/mL
- AUClast [2, 10]: 395.0 ng·h/mL
- Cmax [2, 10]: 183.3 ng/mL
- Tmax [2, 10]: 0.7 h
- T½ [2, 10]: 1.5 h
- AUC0-00 [2, 11]: 365 ng·h/mL and 498 ng·h/mL and 395 ng·h/mL
- AUClast [2, 11]: 348 ng·h/mL and 461 ng·h/mL and 376 ng·h/mL
- Cmax [2, 11]: 187 ng/mL and 208 ng/mL and 155 ng/mL
- Tmax [2, 11]: 1.00 h and 0.50 h
- T½ [2, 11]: 0.87 h and 1.91 h and 1.73 h
- Solubility (mg/ml) HPLC ([3]; Benzalkonium chloride (BKC) 50 mg, Salvinorin A 21 mg, water 10 ml): 0.008 mg/mL (≈ 18.5 µM)
- Solubility (mg/ml) HPLC ([3]; Poloxamer 407 (Lutrol micro 127 MP) 150 mg, Salvinorin A 21 mg, water 10 ml): 0.008 mg/mL (≈ 18.5 µM)
- Solubility (mg/ml) HPLC ([3]; SPAN 60 103.00 mg, Salvinorin A 12.00 mg, water 5 ml): 0.013 mg/mL (≈ 30.1 µM)
- Solubility (mg/ml) HPLC ([3]; Sodium Deoxycholate 100 mg, Salvinorin A 22 mg, water 10 ml): 0.078 mg/mL (≈ 180 µM)
- Solubility (mg/ml) HPLC ([3]; Sodium dodecyl sulfate (SDS; SLS) 50 mg, Salvinorin A 21 mg, water 10 ml): 0.013 mg/mL (≈ 30.1 µM)
- Solubility (mg/ml) HPLC ([3]; TPGS (soluble vitamin E) 100 mg, Salvinorin A 23 mg, water 10 ml): 0.011 mg/mL (≈ 25.4 µM)
- Solubility (Y= soluble, N= not soluble completely) ([4]; DMA, 100 mg/ml): Y (Y= soluble)
- Solubility (Y= soluble, N= not soluble completely) ([4]; DMA, 200 mg/ml): N (N= not soluble completely)
- Solubility (Y= soluble, N= not soluble completely) ([4]; DMSO, 100 mg/ml): Y (Y= soluble)
- Solubility (Y= soluble, N= not soluble completely) ([4]; DMSO, 200 mg/ml): N (N= not soluble completely)
- Solubility (Y= soluble, N= not soluble completely) ([4]; NMP, 20 mg/ml): Y (Y= soluble)
- Solubility (Y= soluble, N= not soluble completely) ([4]; NMP, 100 mg/ml): Y (Y= soluble)
- Solubility (Y= soluble, N= not soluble completely) ([4]; NMP, 200 mg/ml): Y (Y= soluble)
- psychoactive effects [5]: fails to exhibit any psychoactive effects
- AUClast [6, 12]: 191 ng·h/mL
- Cmax [6, 12]: 67.1 ng/mL
- Tmax [6, 12]: 3 h
- AUClast [6, 13]: 233 ng·h/mL
- Cmax [6, 13]: 75.8 ng/mL
- Tlast [6, 13]: 4 h
- Tmax [6, 13]: 4 h
- AUClast [6, 14]: 148 ng·h/mL
- Cmax [6, 14]: 58.4 ng/mL
- Tlast [6, 14]: 4 h
- Tmax [6, 14]: 2 h
- AUClast [6, 15]: 375 ng·h/mL
- Cmax [6, 15]: 192 ng/mL
- Tmax [6, 15]: 0.75 h
- AUClast [6, 16]: 389 ng·h/mL
- Cmax [6, 16]: 250 ng/mL
- Tlast [6, 16]: 4 h
- Tmax [6, 16]: 0.5 h
- AUClast [6, 17]: 361 ng·h/mL
- Cmax [6, 17]: 135 ng/mL
- Tlast [6, 17]: 4 h
- Tmax [6, 17]: 1 h
- AUC0-00 [6, 18]: 1580 ng·h/mL
- AUClast [6, 18]: 1540 ng·h/mL
- Cmax [6, 18]: 370 ng/mL
- Tmax [6, 18]: 0.075 h
- T½ [6, 18]: 4.79 h
- AUC0-00 [6, 19]: 1920 ng·h/mL
- AUClast [6, 19]: 1870 ng·h/mL
- Cmax [6, 19]: 419 ng/mL
- Tlast [6, 19]: 24 h
- Tmax [6, 19]: 1 h
- T½ [6, 19]: 4.80 h
- AUC0-00 [6, 20]: 1240 ng·h/mL
- AUClast [6, 20]: 1210 ng·h/mL
- Cmax [6, 20]: 321 ng/mL
- Tlast [6, 20]: 24 h
- Tmax [6, 20]: 0.5 h
- T½ [6, 20]: 4.78 h
- AUClast [6, 21]: 200 ng·h/mL
- Cmax [6, 21]: 74.5 ng/mL
- Tmax [6, 21]: 2 h
- AUClast [6, 22]: 211 ng·h/mL
- Cmax [6, 22]: 78.3 ng/mL
- Tlast [6, 22]: 4 h
- Tmax [6, 22]: 2 h
- AUClast [6, 23]: 188 ng·h/mL
- Cmax [6, 23]: 70.6 ng/mL
- Tlast [6, 23]: 4 h
- Tmax [6, 23]: 2 h
- (h) [6, 24]: 4.54 h
- AUC0-00 [6, 24]: 735 ng·h/mL
- AUClast [6, 24]: 723 ng·h/mL
- Cmax [6, 24]: 174 ng/mL
- Tmax [6, 24]: 0.75 h
- (h) [6, 25]: 4.16 h
- AUC0-00 [6, 25]: 958 ng·h/mL
- AUClast [6, 25]: 946 ng·h/mL
- Cmax [6, 25]: 162 ng/mL
- Tlast [6, 25]: 24 h
- Tmax [6, 25]: 0.5 h
- (h) [6, 26]: 4.92 h
- AUC0-00 [6, 26]: 512 ng·h/mL
- AUClast [6, 26]: 500 ng·h/mL
- Cmax [6, 26]: 185 ng/mL
- Tlast [6, 26]: 24 h
- Tmax [6, 26]: 1 h
- (h) [6, 27]: 5.00 h
- AUC0-00 [6, 27]: 1420 ng·h/mL
- AUClast [6, 27]: 1380 ng·h/mL
- Cmax [6, 27]: 341 ng/mL
- Tmax [6, 27]: 0.05 h
- (h) [6, 28]: 4.80 h
- AUC0-00 [6, 28]: 1520 ng·h/mL
- AUClast [6, 28]: 1470 ng·h/mL
- Cmax [6, 28]: 315 ng/mL
- Tlast [6, 28]: 24 h
- Tmax [6, 28]: 0.5 h
- (h) [6, 29]: 5.20 h
- AUC0-00 [6, 29]: 1320 ng·h/mL
- AUClast [6, 29]: 1280 ng·h/mL
- Cmax [6, 29]: 368 ng/mL
- Tlast [6, 29]: 24 h
- Tmax [6, 29]: 0.5 h
- time to peak plasma concentration (Tmax) ([6]; subcutaneous dosing in the rat at 5 mg/kg): 2 to 4 h
- time to peak plasma concentration (Tmax) ([6]; subcutaneous dosing in the rat at 25 and 100 mg/kg): 0.5 h
- Solubility ([7]; 4 mg equivalent of API powder or film in 10 mL 10 mM PBS, pH 7, 3 hours, filtered, HPLC): 1.8 µg/mL
- Solubility (in words) ([7]; 10 mM PBS, pH 7.0): very low solubility
